# Measurements as given in US7635686B2, “Therapeutically useful triethyleneglycol cholesteryl oligonucleotides” (Bioniche Life Sciences, Inc., priority 2001, dated 2009).
# {TEG-Chol} = cholesteryl attached through a triethylene glycol (TEG) linker
# What was measured:
# [1] = test system: MDA-MB-231 (MDA-231) cells; assay: MATRIGEL outgrowth after 1 hr pre-incubation, MDA-231; format: cell-based, human; settings: MDA-231, 53 μM pre-incubation 1 hr, 3 days on MATRIGEL, FIG. 1 and FIG. 2
# Method: (§1) Various in vitro and in vivo assays may be used to evaluate the influence of the extracellular microenvironment on behavior of normal cells and tumor cells. Such assays may employ MATRIGEL® (Becton Dickinson, Franklin Lakes, N.J.), which is a solubilized basement membrane preparation extracted from the Engelbreth-Holm-Swarm murine sarcoma.
# (§2) MCF-7, MDA-MB-231 (MDA-231), Hs578T and Mpanc-96 cells were cultured separately in regular culture medium, trypsinized, and counted. 100×10^3 of MDA-231 cells, 100×10^3 of Hs578T cells, 150×10^3 of MCF-7 cells and 150×10^3 of Mpanc-96 cells were separately pre-incubated for 1 hr at 37° C. in a final concentration of 53 μM of SEQ ID NO:1, 53 μM of SEQ ID NO:5 or RCM, and plated on top of MATRIGEL®-coated plates (MATRIGEL® Basement membrane matrix coated cellware 24-well plate,) for 3 days. Plates were fixed with 10% formalin. Digital photographs of the cells in the 24-well plates were taken using a Nikon Coolpix 990 digital camera (Nikon Corporation, Tokyo, Japan) connected to a Nikon inverted microscope model TMS.
# (§3) MDA-MB-231 (MDA-231) and Hs578T were cultured in regular culture medium, trypsinized and counted. 100×10^3 of MDA-MB-231 cells or 100×10^3 of Hs578T cells, were separately pre-incubated for 1 hr at 37° C. in a final concentration of 53 μM of SEQ ID NO:4, 53 μM of SEQ ID NO:8 or RCM and plated on MATRIGEL®-coated plates for 3 days. Plates were fixed with 10% formalin. Digital photographs of the cells in the 24-well plates were taken using a Nikon Coolpix 990 digital camera (Nikon Corporation, Tokyo, Japan) connected to a Nikon inverted microscope model TMS.
# HIG-82 cells = assay: HIG-82 synovial cell proliferation (MTT reduction); format: cell-based, rabbit; settings: 53 μM, 48 hours; for Inhibition of HIG-82 cell proliferation, inhibition (%): MTT
# Method: Adherent HIG-82 cells, a synovial cell line, were incubated at 10×10^5 cells/ml for 48 hours with 53 μM (final concentration) of SEQ ID NO:2, SEQ ID NO:3, SEQ ID NO:4, SEQ ID NO:6, SEQ ID NO:7, or SEQ ID NO:8. Cellular proliferation was measured using dimethylthiazol-diphenyl-tetrazolium (MTT) reduction (Mosman et al., J. Immunol. Methods 65:55, 1983). MTT was measured at a wavelength of 570 nm using a multiple spectrophotometer reader (ELX800, Bio-TEK, Instruments Inc., Winooski, Vt.). The percentage of inhibition, calculated as […]
# Hs578T cells [2] = assay: MATRIGEL outgrowth after 1 hr pre-incubation, Hs578T; format: cell-based, human; settings: 53 μM pre-incubation 1 hr, 3 days on MATRIGEL, FIG. 1 and FIG. 2
# Method: as §1, §2, §3
# MCF-7 cells = assay: Treatment of pre-formed 3-dimensional MCF-7 structures on MATRIGEL; format: cell-based, human; settings: MCF-7, 53 μM, repeated every 3-4 days up to 19-20 days, FIG. 3
# Method: MCF-7 cells were cultured in regular culture medium (RCM), trypsinized and counted. 150×10^3 of MCF-7 cells, in wells of 24-well plates coated with 350 μl of MATRIGEL®. After the formation of 3-dimensional structures during 48 hrs without any treatment, the medium was changed and the structures were exposed to a final concentration of 53 μM of SEQ ID NO:3, 53 μM of SEQ ID NO:7, 53 μM of cholesteryl-TEG phosphoramidite, RCM or their respective control media (RCM with water, RCM with DMSO, or RCM with acetonitrile). The treatments were repeated every 3-4 days until a maximum time in culture of 19-20 days. The experiment was repeated three times. Digital photographs of the cells in the 24-well plates were taken using a Nikon Coolpix 990 digital camera connected to a Nikon inverted microscope model TMS.
# MEG-01 cells = assay: Apoptosis by phosphatidylserine redistribution (FITC-annexin V flow cytometry) in MEG-01 cells; format: cell-based, human; settings: 48 hours; for Percentage of positive cells for phosphatidylserine (cells in apoptosis) in MEG-01 cells: untreated cells 12%
# Method: (§4) Redistribution of plasma membrane phosphatidylserine is a characteristic of cells undergoing apoptosis (Martin et al., J. Exp. Med., 182:1545, 1995). The redistribution of phosphatidylserine in the plasma membrane during apoptosis was measured by flow cytometry using FITC (fluorescein isothiocyanate)-conjugated annexin V (BD Pharmingen, San Diego, Calif.). MEG-01 cells, a human chronic myelogeneous leukemia cell line positive for the Philadelphia chromosome and having a BCR-ABL gene fusion, were incubated at 2.5×10^5 cells/ml for 48 hours with 5.3, 26.5 and 53.0 μM final concentrations of SEQ ID NO:1, SEQ ID NO:2, SEQ ID NO:5, SEQ ID NO:6 and cholesteryl-TEG phosphoramidite molecule. The percentage of cells in apoptosis after exposure to the SEQ ID NOs:1, 2, 5, 6, or cholesteryl-TEG phosphoramidite treatment is reported in Table 2. The percentage of apoptosis in untreated MEG-01 cells was 12%.
# [3] = test system: MDA-MB-231 (MDA-231) cells; assay: Cellular proliferation of MDA-231 cells (Trypan blue exclusion count); format: cell-based, human; settings: MDA-231, 53 μM
# Method: (§5) Either 20×10^3 MDA-MB-231 (MDA-231) or Hs578T cells were plated into individual wells of 24-well plates in regular culture medium (RCM) presence or absence (control) of 53 μM (final concentration) of SEQ ID NO:3, SEQ ID NO:7, 53 μM cholesteryl-TEG phosphoramidite, or corresponding control media (regular culture medium (RCM) for SEQ ID NO:3, RCM with the same amount of water as the amount added with the SEQ ID NO:7, and RCM with the same amount of acetonitrile as the amount added with cholesteryl-TEG phosphoramidite). Cells were cultured for 72 hrs, removed with trypsin and counted with an hemocytometer using the Trypan blue exclusion technique. Results of three independent assays (mean and standard deviation (s.d.) of percentage of changes compared to controls) are shown in Table 9.
# Hs578T cells [4] = assay: Cell cycle progression in Hs578T multicellular spheroids (PI staining); format: cell-based, human; settings: 53 μM, 72 hrs, FIG. 5
# Method: Multicellular spheroids (MS) is an example of a special in vitro assay, in which tumor cells are cultured in a 3-dimensional manner to form a “tumor-like” structure. In this system, there is a reinforcement of cell-cell interactions that mimic microenvironmental conditions of malignant cells in solid tumors in vivo. In this type of assay, no extracellular matrix components are added. Cells cultured in this MS system differ from those in 2-dimensional systems (monolayer culture conditions). Some of these differences are related to structural and functional differentiation of tumor cells, changes in the cell cycle of tumor cells, “multicellular drug resistance”, and changes in the diffusion and penetration of drugs throughout layers of tumor cells (reviewed in Green et al., Anticancer Drug Des. 14:153, 1999).
# About 100×10^3 Hs578T cells per spheroid were cultured in presence of 53 μM final concentration of SEQ ID NO:3, SEQ ID NO:7, 53 μM final concentration of cholesteryl-TEG phosphoramidite (cholTEG) or corresponding control media (regular culture medium (RCM), RCM with the same amount of water (RCMW) as the amount added with the SEQ ID NO:7, and RCM with the same amount of acetonitrile (RCMA) as the amount added with cholesteryl-TEG phosphoramidite). Five spheroids per each experimental condition were cultured for 72 hrs. Afterwards, cell cycle progression was evaluated by propidium iodide (PI) staining (Calbiochem, Novabiochem Corporation, San Diego, Calif.) using a FACScalibur flow cytometer (Becton Dickinson, Franklin Lakes, N.J.). Changes in the percentage of cells in the different phases of the cell cycle were analyzed using MODFIT LT software (Verity Software House Inc).
# EL-4 cells = assay: Apoptosis by phosphatidylserine redistribution (annexin V flow cytometry) in EL-4 cells; format: cell-based, murine; settings: 24 hours; for Percentage of positive cells for phosphatidylserine (cells in apoptosis) in EL-4 cells: untreated cells 7%
# Method: as §4
# EL-4 cells, a murine T lymphoma cell line, were incubated at 2.5×10^5 cells/ml for 24 hours with 0.53, 5.3 and 53.0 μM concentrations of SEQ ID NO:3, SEQ ID NO:7 or cholesteryl-TEG phosphoramidite. The percentage of cells in apoptosis after exposure to SEQ ID NO:3, SEQ ID NO:7 or cholesteryl-TEG phosphoramidite treatment is reported in Table 3. The percentage of apoptosis in untreated EL-4 cells was 7%.
# [5] = test system: MDA-MB-231 (MDA-231) cells; assay: Treatment of pre-formed 3-dimensional MDA-231 structures on MATRIGEL; format: cell-based, human; settings: MDA-231, 53 μM, repeated every 3-4 days up to 17-21 days, FIG. 4
# Method: The MDA-MB-231 (MDA-231) cells were cultured in regular culture medium, trypsinized and counted. 100×10^3 of MDA-231 cells were plated in regular culture medium (RCM), in wells of 24-well plates coated with 350 μl of MATRIGEL®. After the formation of 3-dimensional structures during 48 hrs without any treatment, the medium was changed, and structures were exposed to a final concentration of 53 μM of SEQ ID NO:3, 53 μM of SEQ ID NO:7, 53 μM of cholesteryl-TEG phosphoramidite, RCM, or their respective control media (RCM with water, RCM with DMSO or RCM with acetonitrile). The treatments were repeated every 3-4 days until a maximum time in culture of 17-21 days. The experiment was repeated three times. Digital photographs of the cells in the 24-well plates were taken using a Nikon Coolpix 990 digital camera connected to a Nikon inverted microscope model TMS.
# Hs578T cells [6] = assay: Cellular proliferation of Hs578T cells (Trypan blue exclusion count); format: cell-based, human; settings: 53 μM
# Method: as §5
# [7] = translocation of phosphatidylserine, up to 53.0 μM
# [8] = cultured for 3 days, + stimulation, − inhibition, three independent assays
Compound,Formation of 3-dimensional structures / cell morphology on MATRIGEL [1],Inhibition of proliferation of synovial HIG-82 cells (in words) (HIG-82 cells),"Inhibition of HIG-82 cell proliferation, inhibition (%) (HIG-82 cells)",Formation of 3-dimensional structures / cell morphology on MATRIGEL (Hs578T cells [2]),Effect on pre-formed 3-dimensional structures on MATRIGEL (MCF-7 cells),Percentage of positive cells for phosphatidylserine (cells in apoptosis) in MEG-01 cells (MEG-01 cells; 5.3 μM) [%],Percentage of positive cells for phosphatidylserine (cells in apoptosis) in MEG-01 cells (MEG-01 cells; 26.5 μM) [%],Percentage of positive cells for phosphatidylserine (cells in apoptosis) in MEG-01 cells (MEG-01 cells; 53.0 μM) [%],Induction of apoptosis in MEG-01 cells (in words) (MEG-01 cells; [7]),Effect on cellular proliferation (in words) ([3]; 72 hrs),"Percentage of changes in cellular proliferation compared to controls (mean ± s.d.) [3, 8] [%]",Cell cycle progression in multicellular spheroids (Hs578T cells [4]),Percentage of positive cells for phosphatidylserine (cells in apoptosis) in EL-4 cells (EL-4 cells; 0.53 μM) [%],Percentage of positive cells for phosphatidylserine (cells in apoptosis) in EL-4 cells (EL-4 cells; 5.3 μM) [%],Percentage of positive cells for phosphatidylserine (cells in apoptosis) in EL-4 cells (EL-4 cells; 53.0 μM) [%],Induction of apoptosis in EL-4 cells (in words) (EL-4 cells; [7]),Effect on pre-formed 3-dimensional structures on MATRIGEL [5],Effect on cellular proliferation (in words) (Hs578T cells [6]; 72 hrs),Percentage of changes in cellular proliferation compared to controls (mean ± s.d.) (Hs578T cells [6]; [8])
"5′ OH-GTG-OH 3′ (listed as DNA, chemistry not fully specified) [SEQ ID NO:4]",did not change the cellular morphology,did not inhibit proliferation,−7,did not change the cellular morphology,–,–,–,–,–,–,–,–,–,–,–,–,–,–,–
COc1ccc(C(OCC(COCCOCCOCCOCCCNC(=O)O[C@H]2CC[C@@]3(C)C(=CC[C@H]4[C@@H]5CC[C@H]([C@H](C)CCCC(C)C)[C@@]5(C)CC[C@@H]43)C2)OP(OCCC#N)N(C(C)C)C(C)C)(c2ccccc2)c2ccc(OC)cc2)cc1 (some centres unmarked) [cholesteryl-TEG phosphoramidite],–,–,–,–,did not affect the 3-dimensional structures,12,12,12,inactive,did not significantly affect cellular proliferation,−2.3 ± 15.9,did not significantly modify cell cycle progression,7,7,7,neither SEQ ID NO:3 nor cholesteryl-TEG phosphoramidite caused apoptosis,did not affect the 3-dimensional structures,did not significantly affect cellular proliferation,+13 ± 9.2%
"5′OH-GTG(TEG-cholesteryl) 3′ (3' {TEG-Chol}, sugars by position and backbone not given here) [SEQ ID NO:8, 5′-OH, 3′-TEG cholesteryl synthetic oligonucleotide]",disrupted the growth pattern,capacity to inhibit the cellular proliferation,64,disrupted the growth pattern,–,–,–,–,–,–,–,–,–,–,–,–,–,–,–
